Measurements from patent US11505556B2, “Halogenated derivatives of morphinans and uses thereof” (Xalud Therapeutics, Inc., priority 2017, dated 2022).
Values joined by “and” are separate entries in the source; they are usually repeats but may differ in a detail not shown here. Identical values can stand only once. Like-named read-outs stand apart in the source and are kept apart here.

Key:
Human hepatocytes = experiment: Hepatocyte elimination of parent compound; conditions: cultured hepatocytes
[1] = target: Protein tyrosine kinase LCK (Homo sapiens, UniProt P06239); experiment: Off-target screening; format: biochemical
Source text: (§1) In addition to the animal studies presented above in Examples 1-9, the results of in vitro testing of several of the compounds (i.e., XT-203, XT-204, and XT-206 through XT-217) are shown in Table 5 and Table 6. […]. Nine additional compounds had two or fewer off-target hits in the screening. […] These compounds spanned all of the tested N-modification classes. […]. Thus, the medicinal chemistry approach taken in this series of fluorinated compounds can yield low off-target activity and longer metabolic lifetime while preserving TLR4 antagonism. It is appreciated that further development of compounds in this class, using techniques known to those skilled in the art, may yield additional compounds with desirable pharmacologic and toxicologic characteristics.

iNOS = iNOS (Homo sapiens, UniProt P35228); experiment: iNOS enzyme inhibition; format: biochemical
Sequence of iNOS (P35228 whole entry): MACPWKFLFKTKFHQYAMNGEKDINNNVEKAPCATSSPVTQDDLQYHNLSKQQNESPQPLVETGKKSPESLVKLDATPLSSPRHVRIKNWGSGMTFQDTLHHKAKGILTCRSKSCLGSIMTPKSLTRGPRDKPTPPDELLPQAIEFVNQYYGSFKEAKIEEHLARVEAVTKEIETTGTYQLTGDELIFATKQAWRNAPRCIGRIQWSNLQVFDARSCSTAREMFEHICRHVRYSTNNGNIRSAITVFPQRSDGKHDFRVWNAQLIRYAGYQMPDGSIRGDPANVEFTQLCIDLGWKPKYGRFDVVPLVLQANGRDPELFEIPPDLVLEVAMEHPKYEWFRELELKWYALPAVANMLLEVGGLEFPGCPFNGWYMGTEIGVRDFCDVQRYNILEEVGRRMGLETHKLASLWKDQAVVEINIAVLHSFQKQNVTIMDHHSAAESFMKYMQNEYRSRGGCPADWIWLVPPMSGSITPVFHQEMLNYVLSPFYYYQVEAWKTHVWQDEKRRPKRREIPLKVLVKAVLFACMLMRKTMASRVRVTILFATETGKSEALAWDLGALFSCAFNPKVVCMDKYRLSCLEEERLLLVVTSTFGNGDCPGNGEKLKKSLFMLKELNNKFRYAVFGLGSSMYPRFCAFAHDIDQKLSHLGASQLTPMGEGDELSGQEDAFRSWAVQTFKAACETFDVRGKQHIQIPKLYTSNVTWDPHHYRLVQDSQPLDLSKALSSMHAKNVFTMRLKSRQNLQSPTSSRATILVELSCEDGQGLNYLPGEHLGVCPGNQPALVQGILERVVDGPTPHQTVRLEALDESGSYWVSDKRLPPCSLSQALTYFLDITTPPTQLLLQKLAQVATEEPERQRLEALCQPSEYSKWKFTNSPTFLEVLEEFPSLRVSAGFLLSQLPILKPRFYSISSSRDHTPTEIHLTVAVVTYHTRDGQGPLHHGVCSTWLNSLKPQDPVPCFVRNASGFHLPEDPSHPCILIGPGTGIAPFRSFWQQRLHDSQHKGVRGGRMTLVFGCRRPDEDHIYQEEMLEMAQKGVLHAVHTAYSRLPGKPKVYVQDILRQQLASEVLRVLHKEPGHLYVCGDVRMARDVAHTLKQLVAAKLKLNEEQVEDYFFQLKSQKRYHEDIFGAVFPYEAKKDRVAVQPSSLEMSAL

hERG = hERG (Homo sapiens, UniProt Q12809); experiment: hERG inhibition
Sequence of hERG (Q12809 whole entry): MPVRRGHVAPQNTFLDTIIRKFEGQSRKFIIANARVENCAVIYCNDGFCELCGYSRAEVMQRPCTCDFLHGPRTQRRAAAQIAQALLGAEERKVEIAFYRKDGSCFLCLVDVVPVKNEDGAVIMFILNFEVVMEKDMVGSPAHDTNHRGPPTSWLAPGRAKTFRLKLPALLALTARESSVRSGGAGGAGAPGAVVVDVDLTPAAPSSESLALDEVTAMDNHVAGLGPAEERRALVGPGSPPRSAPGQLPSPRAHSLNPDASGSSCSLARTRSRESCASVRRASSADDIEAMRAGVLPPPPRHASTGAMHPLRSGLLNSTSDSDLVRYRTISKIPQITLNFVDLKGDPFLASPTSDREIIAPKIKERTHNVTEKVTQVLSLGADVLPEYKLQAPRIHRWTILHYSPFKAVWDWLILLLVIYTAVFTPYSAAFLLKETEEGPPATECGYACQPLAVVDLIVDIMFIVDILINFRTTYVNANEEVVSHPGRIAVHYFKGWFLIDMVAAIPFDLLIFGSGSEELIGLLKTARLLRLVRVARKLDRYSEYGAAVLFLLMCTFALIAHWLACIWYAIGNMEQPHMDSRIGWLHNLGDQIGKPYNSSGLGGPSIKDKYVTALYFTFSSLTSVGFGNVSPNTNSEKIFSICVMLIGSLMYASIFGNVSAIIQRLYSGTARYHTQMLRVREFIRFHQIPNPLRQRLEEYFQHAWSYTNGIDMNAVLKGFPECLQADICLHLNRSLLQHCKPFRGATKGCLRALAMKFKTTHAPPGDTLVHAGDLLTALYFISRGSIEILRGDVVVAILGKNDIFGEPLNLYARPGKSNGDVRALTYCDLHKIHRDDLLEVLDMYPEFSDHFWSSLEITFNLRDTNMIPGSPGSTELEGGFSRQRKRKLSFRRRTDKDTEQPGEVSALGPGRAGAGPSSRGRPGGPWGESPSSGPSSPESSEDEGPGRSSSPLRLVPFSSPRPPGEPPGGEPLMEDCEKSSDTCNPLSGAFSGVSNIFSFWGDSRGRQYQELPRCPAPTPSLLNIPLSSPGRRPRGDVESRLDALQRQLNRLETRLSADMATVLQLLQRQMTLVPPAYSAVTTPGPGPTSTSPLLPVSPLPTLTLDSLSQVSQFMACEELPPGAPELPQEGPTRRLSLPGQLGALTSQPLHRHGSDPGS

in vitro [2] = conditions: human, cultured hepatocytes
[3] = tested on: off-target screening panel; experiment: Off-target inhibition screening (whole panel); conditions: 10 μM test concentration; hit = inhibition at or above the 50% level
Source text: as §1

in vitro [4] = conditions: dog, cultured hepatocytes
in vitro [5] = conditions: mouse, hepatocytes
[6] = Hepatocyte elimination of parent compound, spread across species; format: in vitro ADME; conditions: mouse, rat, dog, monkey, human, hepatocytes; lowest to highest species value; read-out: range of hepatocyte elimination half-life values across species
Experimental: Hepatocyte Elimination: (+)-NTX, AK-17 and XT-203 were incubated with cultured hepatocytes from the species listed in FIG. 9 and Table 4, and samples of the culture supernatant were collected over time. Samples were concentrated by nitrogen drying followed by reconstitution with 40% methanol for LC/MS analysis The data points were analyzed using the WinNonLin pharmacokinetics software package, and a half-life was determined that describes the rate of parent elimination. […].
as §1

in vitro [7] = conditions: rat, cultured hepatocytes
[8] = tested on: TLR4 (LPS-stimulated NO production, BV-2 mouse microglia cell line); experiment: NO assay: inhibition of LPS-induced NO production in BV-2 microglia (iNOS cellular); format: cell-based; conditions: Mus musculus
Source text: NO assay: Microglia are the resident cells of the innate immune system in the central nervous system, and TLR4 is primarily expressed by microglia rather than astrocytes or neurons in the CNS. Given this expression profile, the BV-2 mouse microglia cell line was used as the model system of microglia, as these cells recapitulate many of the responses of primary microglia with high fidelity. TLR4 activation induces the downstream production of the inflammatory factor NO, which contributes to the development of neuropathic pain and drug addiction. BV-2 murine microglia were grown in supplemented DMEM (including 10% FBS, 50 unit mL^−1 penicillin, 50 μg·mL^−1 streptomycin). BV-2 cells were detached from the flask by trypsin digestion when ˜80% confluence was reached. Cells were seeded at a density of 4×10^4 cells per well in 96-well plates. After overnight incubation, media was aspirated and changed to DMEM media without FBS. Cells were then treated with LPS (200 ng/ml) and different concentrations of the testing compounds. After 24 h treatment, 100 μL of supernatant media was removed after cells were treated for 24 h and added to flat black 96-well microfluor plates (Thermo Scientific, MA, USA). Subsequently, 10 μL of 2, 3-diaminonaphthalene (0.05 mg·mL^−1 in 0.62 M HCl) was added to each well and incubated for 15 min. The reaction was quenched by addition of 5 μL of 3 M NaOH and the plate was read on a Beckman Coulter DTX880 reader (Fullerton, Calif., USA) with excitation at 360 nm and emission at 430 nm.
N chain NTX: This experimentation involved an in vitro assay where mouse BV2 cells were treated with LPS, which results in the release of nitric oxide (NO). Blockade of TLR4 activity results in reduced NO production. Therefore, IC50 values were determined for test compounds that antagonize TLR4 activity. A series of test compounds were prepared, with different N-alkyl chains replacing the cyclopropyl methyl found in naltrexone. Cell viability was also measured by a standard assay, e.g., measurement of the release of cytoplasm-resident enzymes in the tissue culture supernatant or media to detect cell loss/lysis/rupture. A dose-inhibition curve was generated by testing the TLR4 antagonist compound for the ability to block LPS-stimulated iNOs induction. In FIG. 7, the inhibition levels across a range of doses are graphed, along with a regression curve. The IC50 value—50% inhibition level—is also provided, graphed against the length of the alkyl chain. Note that with longer N-alkyl chain the IC50 was reduced, although cell viability became problematic.
FIGS. 8B to 8D show the results of the inhibition of NO production from LPS-stimulated BV2 cells using the assay described above.

in vitro [9] = conditions: monkey, cultured hepatocytes
Adenosine A2A = Adenosine A2A (Homo sapiens, UniProt P29274); experiment: Off-target screening; format: binding
Sequence of Adenosine A2A (P29274 whole entry): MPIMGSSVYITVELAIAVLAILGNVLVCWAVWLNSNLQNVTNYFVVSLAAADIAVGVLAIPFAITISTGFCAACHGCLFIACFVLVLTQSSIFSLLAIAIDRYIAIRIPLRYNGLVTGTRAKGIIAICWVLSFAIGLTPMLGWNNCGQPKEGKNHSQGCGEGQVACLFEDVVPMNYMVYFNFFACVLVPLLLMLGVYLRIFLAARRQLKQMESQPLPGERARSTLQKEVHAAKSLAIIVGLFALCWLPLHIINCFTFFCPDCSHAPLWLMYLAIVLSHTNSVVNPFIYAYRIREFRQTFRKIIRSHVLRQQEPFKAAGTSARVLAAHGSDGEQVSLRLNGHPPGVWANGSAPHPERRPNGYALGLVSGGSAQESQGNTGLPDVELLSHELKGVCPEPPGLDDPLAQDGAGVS
Source text: as §1

Cannabinoid CB1 = Cannabinoid CB1 (Homo sapiens, UniProt P21554); experiment: Off-target screening; format: binding
Sequence of Cannabinoid CB1 (P21554 whole entry): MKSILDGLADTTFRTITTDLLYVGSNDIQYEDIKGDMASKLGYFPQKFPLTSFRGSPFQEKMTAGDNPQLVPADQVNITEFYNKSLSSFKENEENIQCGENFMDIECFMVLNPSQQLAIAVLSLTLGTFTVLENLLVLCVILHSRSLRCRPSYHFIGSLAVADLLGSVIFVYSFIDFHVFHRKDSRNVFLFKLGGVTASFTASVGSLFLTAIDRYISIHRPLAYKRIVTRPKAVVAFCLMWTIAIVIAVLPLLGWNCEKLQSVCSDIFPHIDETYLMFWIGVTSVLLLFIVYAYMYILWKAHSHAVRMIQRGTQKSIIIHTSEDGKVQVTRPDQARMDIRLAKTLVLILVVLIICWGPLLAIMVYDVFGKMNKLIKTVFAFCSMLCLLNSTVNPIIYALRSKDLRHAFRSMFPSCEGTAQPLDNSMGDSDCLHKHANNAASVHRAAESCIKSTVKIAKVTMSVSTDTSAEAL
Source text: as §1

Histamine H2 = Histamine H2 (Homo sapiens, UniProt P25021); experiment: Off-target screening; format: binding
Source text: as §1

Opiate κ (OP2, KOP) = Opiate κ (OP2, KOP) (Homo sapiens, UniProt P41145); experiment: Off-target screening; format: binding
Sequence of Opiate κ (OP2, KOP) (P41145 whole entry): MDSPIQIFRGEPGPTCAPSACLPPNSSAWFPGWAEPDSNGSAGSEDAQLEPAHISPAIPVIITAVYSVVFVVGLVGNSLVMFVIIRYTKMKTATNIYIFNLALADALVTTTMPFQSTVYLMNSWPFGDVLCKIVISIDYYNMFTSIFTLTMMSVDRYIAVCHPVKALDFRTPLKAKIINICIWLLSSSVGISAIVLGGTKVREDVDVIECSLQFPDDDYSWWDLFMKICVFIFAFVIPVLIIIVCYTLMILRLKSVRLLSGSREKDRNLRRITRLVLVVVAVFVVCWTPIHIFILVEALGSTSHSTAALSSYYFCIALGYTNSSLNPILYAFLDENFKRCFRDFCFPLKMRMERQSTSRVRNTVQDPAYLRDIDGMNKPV
Source text: as §1

[10] = tested on: Calcium channel L-Type, phenylalkylamine; experiment: Off-target screening; format: binding
Source text: as §1

[11] = target: Transporter, Norepinephrine (NET) (Homo sapiens, UniProt P23975); experiment: Off-target screening; format: binding
Sequence of Transporter, Norepinephrine (NET) (P23975 whole entry): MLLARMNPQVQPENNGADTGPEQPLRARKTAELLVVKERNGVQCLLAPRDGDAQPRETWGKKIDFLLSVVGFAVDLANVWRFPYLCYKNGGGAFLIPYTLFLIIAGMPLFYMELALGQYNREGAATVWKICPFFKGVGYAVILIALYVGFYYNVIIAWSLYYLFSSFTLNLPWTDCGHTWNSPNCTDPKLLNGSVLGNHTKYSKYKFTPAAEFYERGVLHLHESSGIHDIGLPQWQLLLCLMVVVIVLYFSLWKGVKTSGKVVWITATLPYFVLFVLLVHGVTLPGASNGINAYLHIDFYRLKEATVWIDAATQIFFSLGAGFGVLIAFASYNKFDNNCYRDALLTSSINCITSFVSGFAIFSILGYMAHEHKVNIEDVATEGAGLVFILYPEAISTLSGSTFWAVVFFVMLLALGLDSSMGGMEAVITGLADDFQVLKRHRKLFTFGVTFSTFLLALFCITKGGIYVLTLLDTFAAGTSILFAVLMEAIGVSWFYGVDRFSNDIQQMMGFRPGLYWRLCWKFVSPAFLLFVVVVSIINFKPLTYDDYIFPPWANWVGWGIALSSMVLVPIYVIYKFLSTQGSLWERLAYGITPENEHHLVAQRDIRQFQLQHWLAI
Source text: as §1

Adrenergic α1A = experiment: Off-target screening; format: binding
Source text: as §1

Dopamine D2S = Dopamine D2S (Homo sapiens, UniProt P14416); experiment: Off-target screening; format: binding
Source text: as §1

[12] = tested on: Calcium channel L-Type, benzothiazepine; experiment: Off-target screening; format: binding
Source text: as §1

Sodium channel site 2 = experiment: Off-target screening; format: binding
Source text: as §1

Dopamine D2L = Dopamine D2L (Homo sapiens, UniProt P14416); experiment: Off-target screening; format: binding
Source text: as §1

Adrenergic α2A = target: T1, Adrenergic α2A (Homo sapiens, UniProt P08913); experiment: Off-target screening; format: binding; conditions: 10 μM
T1 sequence (P08913 1-465): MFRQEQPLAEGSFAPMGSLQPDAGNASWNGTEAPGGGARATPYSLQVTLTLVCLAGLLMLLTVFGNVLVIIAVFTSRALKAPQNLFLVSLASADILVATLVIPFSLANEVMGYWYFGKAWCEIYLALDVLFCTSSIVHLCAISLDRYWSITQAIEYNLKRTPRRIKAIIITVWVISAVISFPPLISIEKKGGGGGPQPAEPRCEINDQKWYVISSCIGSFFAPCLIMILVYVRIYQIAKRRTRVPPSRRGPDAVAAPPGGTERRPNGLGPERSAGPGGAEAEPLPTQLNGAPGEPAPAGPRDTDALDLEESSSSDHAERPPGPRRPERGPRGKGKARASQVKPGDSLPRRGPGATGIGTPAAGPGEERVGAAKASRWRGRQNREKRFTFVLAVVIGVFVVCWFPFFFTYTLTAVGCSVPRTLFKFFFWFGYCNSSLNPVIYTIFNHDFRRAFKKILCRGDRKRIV
Source text: as §1

Opiate μ (OP3, MOP) = Opiate μ (OP3, MOP) (Homo sapiens, UniProt P35372); experiment: Off-target screening; format: binding
Source text: as §1

Adrenergic α1B = experiment: Off-target screening; format: binding
Source text: as §1

Tachykinin NK1 = Tachykinin NK1 (Homo sapiens, UniProt P25103); experiment: Off-target screening; format: binding
Source text: as §1

Adrenergic α1D = Adrenergic α1D (Homo sapiens, UniProt P25100); experiment: Off-target screening; format: binding
Sequence of Adrenergic α1D (P25100 whole entry): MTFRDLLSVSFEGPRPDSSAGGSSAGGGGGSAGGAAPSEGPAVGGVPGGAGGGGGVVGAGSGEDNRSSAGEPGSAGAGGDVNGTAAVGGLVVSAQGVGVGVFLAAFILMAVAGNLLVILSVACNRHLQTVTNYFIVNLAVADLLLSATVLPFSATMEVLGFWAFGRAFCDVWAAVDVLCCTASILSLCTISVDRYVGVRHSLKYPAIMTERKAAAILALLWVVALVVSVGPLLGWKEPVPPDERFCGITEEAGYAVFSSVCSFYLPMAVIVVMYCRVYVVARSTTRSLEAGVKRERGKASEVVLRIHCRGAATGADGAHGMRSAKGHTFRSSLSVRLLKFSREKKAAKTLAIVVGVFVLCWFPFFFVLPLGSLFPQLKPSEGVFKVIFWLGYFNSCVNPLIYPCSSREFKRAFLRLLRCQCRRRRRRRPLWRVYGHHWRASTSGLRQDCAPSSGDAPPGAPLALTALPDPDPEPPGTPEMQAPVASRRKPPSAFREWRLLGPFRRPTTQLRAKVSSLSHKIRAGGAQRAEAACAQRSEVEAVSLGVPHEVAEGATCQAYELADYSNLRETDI
Source text: as §1

Adrenergic α2B = Adrenergic α2B (Homo sapiens, UniProt P18089); experiment: Off-target screening; format: binding
Source text: as §1

Vasopressin V1A = Vasopressin V1A (Homo sapiens, UniProt P37288); experiment: Off-target screening; format: binding
Source text: as §1

Transporter, Adenosine = experiment: Off-target screening; format: binding
Source text: as §1

[13] = tested on: GABA A, chloride channel, TBOB; experiment: Off-target screening; format: binding
Source text: as §1

Progesterone, PR-B = Progesterone, PR-B (Homo sapiens, UniProt P06401); experiment: Off-target screening; format: binding
Source text: as §1

[14] = target: Transporter, Dopamine (DAT) (Homo sapiens, UniProt Q01959); experiment: Off-target screening; format: binding
Source text: as §1

[15] = read-out: iNOS enzyme, Table 6, unit inferred
[16] = Microglia, Table 6, unit inferred, footnote: Indicator of TL4 antagonism
[17] = LPS (200 ng/ml), 24 h, BV-2 cells, Table 3

Compound | IC50 (iNOS) [µM] | IC50 (iNOS; [15]) [µM] | IC50 (hERG) [µM] | half-life (in vitro [2]) [min] | off-target hits in the screening [3] | half-life (in vitro [4]) [min] | half-life (in vitro [5]) [min] | half-life [6] [min] | half-life (in vitro [7]) [min] | IC50 [8, 16] [µM] | IC50 [8, 17] [µM] | half-life (in vitro [9]) [min] | inhibition at 10 µM (Adenosine A2A) [%] | inhibition at 10 µM (Cannabinoid CB1) [%] | inhibition at 10 µM (Opiate κ (OP2, KOP)) [%] | inhibition at 10 µM [11] [%] | other results
COc1ccc2c3c1O[C@@H]1C(F)CCC4[C@H](C2)N(S(C)(=O)=O)CC[C@]341 (stereo partly shown) [XT-209] | > 10 | > 10 | > 10 | 296 | one off-target hit | 89 | 22.4 | 15.3 to 296 | 15.3 | > 10 | > 10 | 39.4 |  |  |  |  | parent duration in human hepatocytes relative to XT-203 (Human hepatocytes): longer parent duration than XT-203; inhibition at 10 µM [1]: 61%
COc1ccc2c3c1O[C@@H]1C(F)CCC4[C@H](C2)N(S(=O)(=O)c2ccccc2)CC[C@]341 (stereo partly shown) [XT-208] | > 10 | > 10 | > 10 | 19.7 | two off-target hits | 14.6 | 10.9 | 8.7 to 19.7 | 12.7 | > 10 | > 10 | 8.7 | 64 | 54 |  |  | 
COc1ccc2c3c1O[C@@H]1C(F)CCC4[C@H](C2)N(C(C)Cc2ccccc2)CC[C@]341 (stereo partly shown) [XT-215] |  |  |  | 65.6 |  | 19.6 | 20.7 |  | 12.7 | > 10 | > 10 | 22.1 |  | 57 | 79 | 61 | IC50 (hERG; human): 10 µM; inhibition at 10 µM (hERG; human, read-out: hERG inhibition, percent): 51%; inhibition at 10 µM (Histamine H2): 82%; % Inhibition at 10 μM, Calcium channel L-Type phenylalkylamine [10]: 73% and 51%; % Inhibition at 10 μM, Adrenergic α1A (Adrenergic α1A): 85% and 99%; inhibition at 10 µM (Dopamine D2S): 81%; % Inhibition at 10 μM, Calcium channel L-Type, benzothiazepine [12]: 51% and 73%; % Inhibition at 10 μM, Sodium channel site 2 (Sodium channel site 2): 101%; inhibition at 10 µM (Dopamine D2L): 65%; inhibition at 10 µM (Adrenergic α2A): 96%; inhibition at 10 µM (Opiate μ (OP3, MOP)): 79%; % Inhibition at 10 μM, Adrenergic α1B (Adrenergic α1B): 99%; inhibition at 10 µM (Tachykinin NK1): 55%; inhibition at 10 µM (Adrenergic α1D): 92%; inhibition at 10 µM (Adrenergic α2B): 105%
COc1ccc2c3c1O[C@@H]1C(F)CCC4[C@H](C2)N(C(=O)C(C)(C)c2ccccc2)CC[C@]341 (stereo partly shown) [XT-216] |  |  | > 10 | 31.5 |  | 17.1 | 20.8 |  | 11.3 | > 10 | > 10 | 10.6 | 57 | 82 | 69 | 59 | inhibition at 10 µM (Vasopressin V1A): 69%; % Inhibition at 10 μM, Transporter, Adenosine (Transporter, Adenosine): 60%; % Inhibition at 10 μM, GABA A, chloride channel, TBOB [13]: 54%; inhibition at 10 µM (Progesterone, PR-B): 50%; inhibition at 10 µM [14]: 52%
